According to US20140227174A1, “SKIN PERMEATING AND CELL ENTERING (SPACE) PEPTIDES AND METHODS OF USE THEREFOR” (CONVOY THERAPEUTICS, priority 2013, published 2014):
Each block holds one compound with its values, some of them ahead of it. Residues, ends and D or L forms follow the SMILES beside them.

Tests used:
Format in all cases: in vitro ADME
Full thickness pig skin [1] = experiment: In vitro delivery of siRNA to skin in Franz diffusion cells; conditions: 100 microliters of 25 nmole/ml; area of 2 sq. cm; 24 hours
Protocol: Full thickness pig skin (Lampire Biological Laboratories, Pipersville, Pa.) was used. The skin was stored at −80° C. and defrosted immediately prior to use. Briefly, the skin was allowed to thaw with the stratum corneum side up left open to the atmosphere for at least half hour. Skin disks of 36 mm were punched out. The subcutaneous fatty tissue was carefully removed from the dermis, and the hair shaft was cut off to no more than 4 mm. The skin piece was cleaned with PBS (pH 7.4). […]
In vitro skin penetration and deposition experiments of different formulations were run in Franz diffusion cells occlusively and maintained at 37±1° C. throughout the experiments. […] At the end of an experiment, a sample of 1 ml was withdrawn from the receptor phase for concentration measurement by fluorescence assay using a micro-plate reader (SAFIRE, XFLUOR4, V4.50, Tecan Group Ltd, NY, US). […]
The stratum corneum was removed by striping with an adhesive tape (SCOTCH® Transparent Tape, 3M Corporate, St. Paul, Minn.). […] The supernatant were withdrawn, diluted if necessary and analyzed by fluorescence measurement.
The concentrations of FAM-GAPDH-siRNA and FAM-GAPDH-siRNA-SPACE-Peptide conjugates were determined by fluorescence spectroscopy. Fluorescence detection was performed at an excitation of 495 nm and an emission of 525 nm for both conjugates. […]

EPIDERM™ tissue = experiment: Penetration of SPACE Peptide formulations across EPIDERM tissue; conditions: 100 μl on 2 cm^2, 24 hours
Protocol: Additional experiments performed using EPIDERM™ tissue confirmed penetration of SPACE Peptide across the skin. For this purpose, the SPACE Peptide formulations were prepared using the methods described herein above. EPIDERM™ tissues were obtained from MatTek Corporation (Ashland, Mass.). […] A 100 microliter formulation applied on EPIDERM™ tissue for 24 hours was determined to deliver 25% of SPACE Peptide across EPIDERM™ tissue.
FIG. 8C is a bar graph showing delivery of a fluorescent label to EPIDERM™ (left column of each pair) and a pig skin model (right column of each pair) using different formulations the contain SPACE Peptides. A 100 μl sample of various formulations was placed on a 2 cm^2 skin sample and penetration was tested 24 hours after application.

Full thickness pig skin [2] = test system: Full thickness pig skin
Protocol: Full thickness pig skin (Lampire Biological Laboratories, Pipersville, Pa.) was used. The skin was stored at −80° C. and defrosted immediately prior to use. Briefly, the skin was allowed to thaw with the stratum corneum (SC) side up left open to the atmosphere. Skin disks of 36 mm were punched out. The subcutaneous fatty tissue was carefully removed from the dermis, and the hair shaft was clipped to no more than 4 mm. The skin pieces were cleaned with PBS (pH 7.4). Subsequently, the integrity of the skin disks were checked with a skin conductivity measurement to ensure that samples were free from any surface irregularity such as tiny holes or crevices in the portion that was used for skin penetration and deposition studies.
In vitro skin penetration and deposition experiments of different liposomal systems containing a SPACE Peptide labeled with fluorescein isothiocyanate (FITC-SPACE), CsA, or fluorescent hyaluronidase (Fluorescein-HA) were run in Franz diffusion cells occlusively and maintained at 37±1° C. throughout experiments using an oven. The effective penetration area and receptor cell volume were 1.77 cm^2 and 12.0 ml, respectively. The acceptor compartment was filled with PBS pH 7.4 as the receptor medium. Each test formulation was investigated in triplicate. Skin disks were mounted with the SC side up and the donor compartment left dry and open to atmosphere for 0.5 hour before test formulation application. Caution was taken to remove all air bubbles between the underside of the skin (dermis) and the acceptor solution. The skin was stretched in all directions to avoid the presence of furrows.
100-200 μL of the test formulation was applied to skin surface using a pipette. The experiments were carried out under occlusion with light protection. The incubation time of the skin with each test formulation was 24 hours. At the end of an experiment, a sample of 1-3 mL was withdrawn from the receptor phase for concentration measurement by fluorescence assay using a micro-plate reader (SAFIRE, XFLUOR4, V4.50, Tecan Group Ltd, NY, United States of America) for fluorescence. In the case of CsA experiments, a sample of 3 ml was withdrawn from the receptor phase for ^3H-CsA measurement by a liquid scintillation counter (TRI-GARB 2100TR, Packard Instrument Company, Downers Grove, Ill.). The formulations were removed from the skin by washing five times with PBS (pH 7.4). After cleaning, the skin was transferred onto a device for tape-stripping the SC.
The stratum corneum was removed by striping with an adhesive tape (SCOTCH® Transparent Tape, 3M Corporate, St. Paul, Minn.). In order to avoid any furrows, which could be a reason for false results of the stripping procedure, the skin was stretched and mounted on cork discs as mentioned previously. The skin was covered with a TEFLON® mask with a central hole of 15 mm in diameter. Adhesive tape was put onto the skin and a weight of 2 kg was placed on the tape for 10 seconds. The tape was rapidly removed with forceps and transferred into a glass vial of suitable size. Ten stripping procedures were performed consecutively. For analytical reasons, the stripped tapes were collected in glass vials according the following scheme: vial 1=strip 1st, vial 2=strip 2nd-5th, and vial 3=strip 6th-10th. After tape-stripping, the epidermis sheet was separated from the dermis with a sterile surgical scalpel and cut into small pieces and collected into a glass vial. […]

[3] = test system: epidermis and dermis from porcine skin; experiment: Partitioning of SPACE Peptide into isolated epidermis and dermis; conditions: ratio of concentrations in skin layer and surrounding PBS; aqueous solution of SPACE Peptide; after 24 hours
Protocol: FIG. 5 is a schematic representation of the measurement of partitioning of SPACE peptide. FITC-SPACE peptide was incubated epidermis-SC and dermis for […] at 37° C. and the amount of SPACE peptide partitioned into the tissue was measured.
In these experiments, epidermis and dermis from porcine skin were isolated and placed in separate vials in an aqueous solution of SPACE Peptide of SEQ ID NO: 13. The amount of SPACE Peptide that partitioned into each skin layer was measured after 24 hours. The ratio of concentrations in skin layers and surrounding PBS was used to determine the partition coefficient.

- penetration of siRNA into skin (applied dose) (Full thickness pig skin [1]): 3.3%
Compound: 5′-FAM-GACGUAAACGGCCACAAGUUC-3′ [siRNA aqueous solution]

- penetration into EPIDERM tissue (FIG. 8C) (EPIDERM™ tissue): penetrated into the EPIDERM™ tissue
Compound: C[C@H](NC(=O)CCCCCNC(=S)Nc1ccc2c(c1)C(=O)OC21c2ccc(O)cc2Oc2cc(O)ccc21)C(=O)N[C@H]1CSSC[C@@H](C(=O)NCC(=O)O)NC(=O)[C@H](CCC(N)=O)NC(=O)[C@H](Cc2c[nH]cn2)NC(=O)[C@H](CCC(N)=O)NC(=O)[C@H]([C@@H](C)O)NC(=O)[C@H](CO)NC(=O)CNC(=O)[C@H]([C@@H](C)O)NC1=O [FITC-SPACE] (HELM PEPTIDE1{[O=C1OC2(c3ccc(O)cc3Oc3cc(O)ccc32)c2ccc(NC(=S)[*:2])cc21].[O=C(CCCCCN[*:1])[*:2]].A.C.T.G.S.T.Q.H.Q.C.G}$PEPTIDE1,PEPTIDE1,4:R3-12:R3$$$V2.0; C-terminus assumed)

- partition coefficient in the dermis [3]: 4.3
- partition coefficient in the epidermis [3]: 9.8
Compound: C[C@H](N)C(=O)N[C@H]1CSSC[C@@H](C(=O)NCC(=O)O)NC(=O)[C@H](CCC(N)=O)NC(=O)[C@H](Cc2c[nH]cn2)NC(=O)[C@H](CCC(N)=O)NC(=O)[C@H]([C@@H](C)O)NC(=O)[C@H](CO)NC(=O)CNC(=O)[C@H]([C@@H](C)O)NC1=O [SPACE Peptide] (HELM PEPTIDE1{A.C.T.G.S.T.Q.H.Q.C.G}$PEPTIDE1,PEPTIDE1,2:R3-10:R3$$$V2.0; N-terminus and C-terminus assumed)
- penetration of FITC label into skin layers (summary of FIG. 8B) (Full thickness pig skin [2]): enhanced penetration of FITC-SPACE Peptide formulations

- HA delivery in the epidermis (Full thickness pig skin [2]): less than 0.5 microgram per sq. cm
- HA delivery, formulation made at pH 8 versus otherwise identical formulation at pH 4 (Full thickness pig skin [2]): delivered less HA
- amount of HA in the skin compared with the receiver compartment (Full thickness pig skin [2]): significantly higher
- topically-applied HA penetrating into skin (Full thickness pig skin [2]): about 17%
Compound: Hyaluronic acid [HA]
